Experimental data: the NIST ThermoML archive (doi:10.1021/je700329a)
Values joined by “and” are separate entries in the source; they are usually repeats but may differ in a detail not shown here. Equal entries are not always repeated.

Key:
[1] = 101.33 kPa, Liquid; for viscosity: Stabinger Viscometer; for mass density: Vibrating tube method; for speed of sound: DSA 5000; for electrical conductivity: Alternating current cell with electrodes
[2] = wn = mass fraction of the nth substance listed; details: 101 kPa, Liquid; for electrical conductivity: Alternating current cell with electrodes; for kinematic viscosity: Capillary tube (Ostwald / Ubbelohde) method; for speed of sound: Pulse-echo method; for mass density: Vibrating tube method

CCCCCC[n+]1ccn(C)c1.O=S(=O)([N-]S(=O)(=O)C(F)(F)F)C(F)(F)F
[1]
Details	electrical conductivity [S/m]	mass density	speed of sound	viscosity
258.15 K	–	1407.6 kg/m3	–	941.8 mPa·s
263.15 K	–	1403.1 kg/m3	–	612.7 mPa·s
268.15 K	–	1398.5 kg/m3	–	417.4 mPa·s
273.15 K	–	1394 kg/m3	–	291.2 mPa·s
278.15 K	–	1389.5 kg/m3	–	207.6 mPa·s
283.15 K	–	1385 kg/m3 and 1385.9 kg/m3 and 1386 kg/m3	1262 m/s and 1262.4 m/s	153.3 mPa·s
288.15 K	0.135	1380.5 kg/m3	–	115.8 mPa·s
293.15 K	0.173	1376.7 kg/m3 [middle of 4 runs]	1238.4 m/s and 1238.5 m/s	89.54 mPa·s and 89.26 mPa·s
298.15 K	0.218	1372.1 kg/m3 [middle of 4 runs]	1226.8 m/s and 1226.9 m/s	70.09 mPa·s and 70.29 mPa·s
303.15 K	–	1367.3 kg/m3 and 1367.5 kg/m3 and 1367.6 kg/m3	1215.5 m/s and 1215.6 m/s	56.11 mPa·s
308.15 K	0.328	–	–	–
313.15 K	–	1358.3 kg/m3 and 1358.4 kg/m3	1193.3 m/s and 1193.4 m/s	37.41 mPa·s
323.15 K	0.548	1349.3 kg/m3 and 1349.4 kg/m3	1171.5 m/s and 1171.6 m/s	26.25 mPa·s
333.15 K	–	1340.3 kg/m3 and 1340.4 kg/m3	1149.8 m/s and 1150.4 m/s	19.22 mPa·s
343.15 K	–	1331.3 kg/m3 and 1331.4 kg/m3	1128.4 m/s and 1129.6 m/s	14.58 mPa·s
353.15 K	–	1322.5 kg/m3	–	11.38 mPa·s
363.15 K	–	1313.6 kg/m3	–	9.128 mPa·s
373.15 K	–	1304.8 kg/m3	–	7.463 mPa·s

CCCCCC[n+]1ccn(C)c1.O=S(=O)([N-]S(=O)(=O)C(F)(F)F)C(F)(F)F + O
[2]
Details	electrical conductivity [S/m]	kinematic viscosity [m2/s]	mass density [kg/m3]	speed of sound [m/s]
288.15 K, w2 = 1e-05	0.135	–	–	–
288.15 K, w2 = 0.00094	0.142	–	–	–
293.15 K, w2 = 1e-05	0.173	–	–	–
293.15 K, w2 = 2e-05	–	6.53e-05	–	–
293.15 K, w2 = 0.00094	0.18	–	–	–
293.15 K, w2 = 0.0011	–	6.16e-05	–	–
293.15 K, w2 = 0.00727	0.232	–	–	–
293.15 K, w2 = 0.00784	0.237	–	–	–
293.15 K, w2 = 0.0082	–	4.55e-05	–	–
293.15 K, w2 = 0.00898	0.246	–	–	–
298.15 K, w2 = 1e-05	0.218	5.12e-05	–	–
298.15 K, w2 = 2e-05	–	5.13e-05	–	–
298.15 K, w2 = 3.5e-05	–	–	1372.07	1226.6
298.15 K, w2 = 0.00094	0.227	–	–	–
298.15 K, w2 = 0.00102	–	–	1370.45	–
298.15 K, w2 = 0.00106	–	–	–	1227.4
298.15 K, w2 = 0.00112	–	4.85e-05	–	–
298.15 K, w2 = 0.00722	–	–	1367.04	–
298.15 K, w2 = 0.00727	0.289	–	–	–
298.15 K, w2 = 0.007315	–	–	–	1230.3
298.15 K, w2 = 0.00784	0.295	–	–	–
298.15 K, w2 = 0.00819	–	3.63e-05	–	–
298.15 K, w2 = 0.00898	0.306	–	–	–
308.15 K, w2 = 1e-05	0.328	–	–	–
308.15 K, w2 = 0.00094	0.34	–	–	–
323.15 K, w2 = 1e-05	0.548	–	–	–
323.15 K, w2 = 0.00094	0.566	–	–	–
